Data as given in US11634425B2, “Pharmaceutical compounds” (priority 2019, dated 2023).
In brackets after ≈: the same amount, converted by molar mass. Read-outs that look alike come from different tables or passages of the source.

How the values were obtained:
Cell cytotoxicity (CC50) = format: cell-based; conditions: human; mean of at least two experiments
Procedure, shortened: (§1)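 Values are means of ≥2 independent runs, rounded to whole units, from 4-parameter variable-slope curve fits. Toxicity measured in Hep-G2 cells run alongside RSV plaque-reduction assays.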

Thermodynamic solubility = format: physicochemical; conditions: aqueous buffer, thermodynamic from solid; typically phosphate buffered saline pH 7.4, ambient temperature overnight
Description: Test compound (2.5 mg of solid; n=1) was weighed in an amber glass vial and buffer (0.5 mL) was added (typically phosphate buffered saline pH 7.4). The solution was agitated at ambient temperature overnight using a vial roller system. The solution was then filtered (0.45 μm pore size; without pre-saturation). Duplicate aliquots (50 μL) are sampled from the filtrate and diluted with one volume of Milli-Q water and methanol (1:1 v/v) before analysis by HPLC-UV. A standard was prepared in DMSO at 10 mg/mL (n=1) which was then diluted 10-fold in Milli-Q water and methanol (1:1 v/v) to give a 1 mg/mL solution. The concentration of test compound in the filtrate was quantified relative to the concentration standard. Analysis was performed using a gradient HPLC-MS system.

in vitro [1] = format: in vitro ADME; conditions: 1 μM compound, 0.5 mg/mL protein; for half-life at 1 μM: microsomes, pH 7.4, read-out: Liver Microsomal Stability t1/2
Procedure, shortened: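 Pooled liver microsomes (0.5 mg/mL protein) in 0.1 M phosphate pH 7.4 with 1 μM compound and 1 mM NADPH at 37° C., sampled at 0–45 min; minus-NADPH control at 45 min. Acetonitrile quench, LC-MS/MS; t1/2 and CLint from ln peak-area ratio vs time slope.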

RSV A2 = test: RSV plaque reduction assay; format: cell-based, respiratory syncytial virus (RSV); conditions: mean of at least two experiments
Procedure, shortened: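 EC50 is the 50% reduction in immunostained plaque count versus virus-control wells, interpolated from variable-slope 4-parameter fits and averaged over at least two runs. Hep-G2 cells were infected with 100 PFU/well RSV A2 premixed with compound, with the inoculum removed after 2 h. Incubation continued at 37 °C for 2 days under a CMC overlay with compound.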

in vitro [2] = format: in vitro ADME; conditions: hepatocytes, 3 μM compound, read-out: Liver Hepatocyte Stability t1/2
Description: Compounds were subjected to the following assays to investigate liver microsomal stability and hepatocyte stability.
Hepatocyte Incubation: Experimental Procedure
Cryopreserved pooled hepatocytes were purchased from a reputable commercial supplier and stored in liquid nitrogen prior to use. Williams E media supplemented with 2 mM L-glutamine and 25 mM HEPES and test compound (final substrate concentration 3 μM; final DMSO concentration 0.25%) are pre-incubated at 37° C. prior to the addition of a suspension of cryopreserved hepatocytes (final cell density 0.5×10^6 viable cells/mL in Williams E media supplemented with 2 mM L-glutamine and 25 mM HEPES) to initiate the reaction. The final incubation volume is 500 μL. Two control compounds were included with each species, alongside appropriate vehicle control. The reactions are stopped by transferring 50 μL of incubate to 100 μL acetonitrile containing internal standard at the appropriate time points. Samples were removed at 6 time points (0, 5, 15, 30, 45 and 60 min) over the course of a 60 min experiment. The termination plates are centrifuged at 2500 rpm at 4° C. for 30 min to precipitate the protein. Following protein precipitation, the sample supernatants were combined in cassettes of up to 4 compounds and analysed using generic LC-MS/MS conditions. From a plot of ln peak area ratio (compound peak area/internal standard peak area) against time, the gradient of the line is determined. Subsequently, half-life (t1/2) and intrinsic clearance (CLint) were calculated.

Hep-G2 cells = test: Cell cytotoxicity (CC50); format: cell-based; conditions: mean of at least two experiments
Procedure, shortened: as §1

in vivo = format: in vivo; conditions: male Beagle dog
Description: The pharmacokinetics of compounds were studied in vivo in dogs at doses of 0.5 mg/kg (IV) and 4 mg/kg (PO).
Male Beagle dogs were treated with experimental compounds via intravenous administration (n=2; 0.5 mg/kg) or oral administration (n=2; 3 or 4 mg/kg). Compounds were formulated as a solution in 20% dimethylacetamide/80% (2-hydroxypropyl)-β-cyclodextrin (20% w/v) (IV administration) or a solution in 10% dimethylacetamide/90% (2-hydroxypropyl)-β-cyclodextrin (20% w/v) (PO administration). […] Serial blood samples were collected from the jugular vein at 0.03, 0.08, 0.25, 0.5, 1, 2, 4, 6, 8 and 24 h post IV dosing of compound, and at 0.08, 0.25, 0.5, 1, 2, 4, 6, 8 and 24 h post oral dosing of compound, and plasma was prepared by centrifugation and stored immediately at −80° C. Samples were subsequently thawed, prepared for analysis by protein precipitation with acetonitrile, and analysed by tandem LCMS using electrospray ionisation using a matrix-matched calibration curve. PK parameters were calculated from the resulting data.

RSV = conditions: Antimicrobial Agents and Chemotherapy, September 2007, 3346-3353; cited from earlier work
[3] = human respiratory syncytial virus, HepG2, Hep-G2 cells

Compound	CC50 (Cell cytotoxicity (CC50)) [nM]	solubility thermodynamic (Thermodynamic solubility) [µM]	half-life at 1 μM (in vitro [1]; dog) [h]	half-life at 1 μM (in vitro [1]; human) [h]	half-life at 1 μM (in vitro [1]; rat) [h]	EC50 (RSV A2; [3]) [nM]	half-life at 3 μM (in vitro [2]; dog) [h]	half-life at 3 μM (in vitro [2]; human) [h]	half-life at 3 μM (in vitro [2]; rat) [h]	CC50 (Hep-G2 cells) [nM]	Liver Microsomal Stability t1/2 (in vitro [1]; dog) [h]	Liver Microsomal Stability t1/2 (in vitro [1]; human) [h]	Liver Microsomal Stability t1/2 (in vitro [1]; rat) [h]	EC50 (RSV A2; Hep-G2 cells) [nM]	further results
Cc1nc2ccc(Cl)nn2c1C(=O)N[C@H]1N=C(c2ccccc2)c2ccccc2NC1=O [Example 21, 6-Chloro-2-methyl-N-[(3S)-2-oxo-5-phenyl-1,3-dihydro-1,4-benzodiazepin-3-yl]imidazo[1,2-b]pyridazine-3-carboxamide]	> 25000	4.64 (≈ 2.06 µg/mL)	2.95	2.15	1.04	147	2.55	2.52	1.5	–	–	–	–	–	–
2-[2-Methyl-6-(propan-2-ylamino)pyridin-3-yl]-N-[(3S)-9-fluoro-2-oxo-5-phenyl-1,3-dihydro-1,4-benzodiazepin-3-yl]pyrazolo[1,5-a]pyrimidine-3-carboxamide [Example 61]	–	–	–	–	–	–	–	–	–	> 25000	0.392	2.2	1.07	25	–
N-[(3S)-9-Fluoro-2-oxo-5-phenyl-1,3-dihydro-1,4-benzodiazepin-3-yl]-2-(2-fluorophenyl)-7-methylpyrazolo[1,5-a]pyrimidine-3-carboxamide [Example 38]	–	–	–	–	–	–	–	–	–	> 25000	2.75	> 2.33	1.98	27	–
Cc1nc2ccc(Cl)nn2c1C(=O)N[C@H]1N=C(c2ccccc2)c2cccc(F)c2NC1=O [Example 20, 6-Chloro-N-[(3S)-9-fluoro-2-oxo-5-phenyl-1,3-dihydro-1,4-benzodiazepin-3-yl]-2-methylimidazo[1,2-b]pyridazine-3-carboxamide]	> 25000	3.84 (≈ 1.78 µg/mL)	> 2.33	> 2.33	1.68	114	2.2	2.18	2.92	–	–	–	–	–	Vd (in vivo; in vivo, IV 0.5 mg/kg): 1.2 L/kg; clearance (in vivo; in vivo, IV 0.5 mg/kg): 1.6 mL/min/kg; Cmax (in vivo; in vivo, IV 0.5 mg/kg / PO 3 or 4 mg/kg study): 3850 ng/mL; half-life (in vivo; in vivo, IV 0.5 mg/kg, read-out: IV t1/2 (converted)): 10.3 h; AUC(0-t) (in vivo; in vivo, PO 3 or 4 mg/kg, read-out: PO AUClast): 43700 ng·h/mL; half-life (in vivo; in vivo, PO 3 or 4 mg/kg, read-out: PO t1/2 (converted)): 19.2 h; C 8 h (in vivo; 8 h, IV 0.5 mg/kg / PO 3 or 4 mg/kg study): 1581 ng/mL; F (in vivo; IV 0.5 mg/kg, PO 3 or 4 mg/kg): 118%
O=C(Nc1ccccc1F)N[C@H]1N=C(c2ccccc2)c2ccccc2NC1=O [RSV604]	–	–	–	–	–	–	–	–	–	–	–	–	–	–	anti-RSV activity (RSV): sub-micromolar
O=C(N[C@H]1N=C(c2ccccc2)c2cccc(F)c2NC1=O)c1c(-c2ccc3[nH]ncc3c2)nc2cccnn12 [Example 126, N-[(3S)-9-fluoro-2-oxo-5-phenyl-1,3-dihydro-1,4-benzodiazepin-3-yl]-2-(1H-indazol-5-yl)imidazo[1,2-b]pyridazine-3-carboxamide]	–	–	–	–	–	–	–	–	–	> 25000	0.563	5.2	6.88	56	–
